Laboratory results reported in the supplement of paper PMC10331698.
± gives the standard deviation of the averaged measurements.

Key:
Experiment in all cases: level (log10 ratio to DMSO vehicle control); higher = higher biomarker level / cell amount than vehicle control
[1] = compound: FC(F)(F)C(F)(F)C(F)(F)CC1CO1 [1H,1H-Heptafluorobutyl epoxide]; conditions: in DMSO
Description: (§1)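 BioMAP Diversity Plus panel of 12 human primary cell co-culture systems (3C, 4H, LPS, SAg, BT, BF4T, BE3C, CASM3C, HDF3CGF, KF3CT, MyoF, Mphg). Compounds were added 1 h before stimulation and left for 24 h (MyoF 48 h; BT 72 h for soluble read-outs or 6 d for IgG). Biomarkers were read by ELISA, cytotoxicity by SRB, PBMC viability and proliferation by Alamar Blue. Each well value was divided by the mean of 8 DMSO control wells on the same plate and log10 transformed; duplicate blinded samples were tested at 4 concentrations.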

[2] = compound: O=C(O)C(F)(F)C(F)(F)C(F)(F)C(F)(F)C(F)(F)C(F)(F)C(F)(F)C(F)(F)C(F)(F)C(F)F [11-H-Perfluoroundecanoic acid]; conditions: in DMSO
Description: as §1

[3] = compound: C=CC(=O)OCC(F)(F)C(F)(F)C(F)(F)COC(=O)C=C [1H,1H,5H,5H-Perfluoro-1,5-pentanediol diacrylate]; conditions: 6700 nM; in DMSO
Description: as §1

[4] = compound: NS(=O)(=O)C(F)(F)C(F)(F)C(F)(F)C(F)(F)C(F)(F)C(F)(F)F [Perfluorohexanesulfonamide]; conditions: in DMSO
Description: as §1

[5] = compound: O=S(=O)(Cl)C(F)(F)C(F)(F)C(F)(F)C(F)(F)C(F)(F)C(F)(F)C(F)(F)C(F)(F)F [Perfluoro-1-octanesulfonyl chloride]; conditions: in DMSO
Description: as §1

[6] = compound: C=C(C)C(=O)OCCC(F)(F)C(F)(F)C(F)(F)C(F)(F)C(F)(F)C(F)(F)F [6:2 Fluorotelomer methacrylate]; conditions: in DMSO
Description: as §1

| Test System | level (log10) ([1]; 6700 nM) | level (log10) ([1]; 20000 nM) | level (log10) ([1]; 60000 nM) | level (log10) ([2]; 6700 nM) | level (log10) ([2]; 20000 nM) | level (log10) [3] | level (log10) ([4]; 6700 nM) | level (log10) ([4]; 20000 nM) | level (log10) ([4]; 60000 nM) | level (log10) ([5]; 6700 nM) | level (log10) ([5]; 20000 nM) | level (log10) ([5]; 60000 nM) | level (log10) ([6]; 6700 nM) | level (log10) ([6]; 20000 nM) | level (log10) ([6]; 60000 nM) |
| --- | --- | --- | --- | --- | --- | --- | --- | --- | --- | --- | --- | --- | --- | --- | --- |
| BE3C:CD87/uPAR | 0.0105 ± 0.0092 | -0.004 ± 0.024 | -0.004 ± 0.023 | 0.0235 ± 0.026 | -0.264 ± 0.019 | 0.0195 ± 0.0064 | 0.0005 ± 0.0035 | -0.0055 ± 0.018 | -0.13 ± 0.018 | 0.0825 ± 0.025 | 0.0795 ± 0.0064 | -0.276 ± 0.052 | -0.047 ± 0.027 | -0.0335 ± 0.019 | -0.0305 ± 0.028 |
| BE3C:CXCL8/IL-8 | 0.01 ± 0.062 | 0.0235 ± 0.029 | 0.0505 ± 0.081 | -0.0885 ± 0.016 | 0.0475 ± 0.05 | -0.0515 ± 0.04 | -0.0795 ± 0.044 | -0.161 ± 0.0078 | -0.3 ± 0.039 | 0.0065 ± 0.005 | -0.0605 ± 0.0021 | -0.311 ± 0.17 | 0.05 ± 0.086 | 0.0325 ± 0.046 | 0.043 ± 0.072 |
| BE3C:CXCL10/IP-10 | -0.013 ± 0.0071 | -0.0065 ± 0.0092 | -0.012 ± 0.0042 | -0.141 ± 0.012 | -0.874 ± 0.014 | -0.0215 ± 0.0035 | -0.016 ± 0.04 | -0.086 ± 0.042 | -0.235 ± 0.047 | -0.0275 ± 0.0064 | -0.165 ± 0.033 | -0.927 ± 0.04 | 0.0275 ± 0.091 | 0.021 ± 0.068 | 0.034 ± 0.078 |
| BE3C:CXCL11/I-TAC | 0.0015 ± 0.00071 | 0.0115 ± 0.005 | 0.013 ± 0.0014 | -0.04 ± 0.0057 | -0.826 ± 0.0085 | 0.0085 ± 0.011 | 0.0015 ± 0.052 | -0.023 ± 0.035 | -0.107 ± 0.067 | -0.012 ± 0.014 | 0.002 ± 0.011 | -0.598 ± 0.059 | 0.0125 ± 0.023 | 0 ± 0.014 | 0.0155 ± 0.028 |
| BE3C:EGFR | -0.0025 ± 0.0064 | -0.0045 ± 0.0064 | -0.018 ± 0.0042 | -0.0125 ± 0.021 | -0.12 ± 0.0057 | -0.01 | 0.023 ± 0.0057 | 0.0205 ± 0.033 | 0.014 ± 0.017 | -0.0135 ± 0.019 | -0.0285 ± 0.00071 | -0.121 ± 0.014 | 0.0045 ± 0.052 | 0.0085 ± 0.043 | 0.0135 ± 0.049 |
| BE3C:HLA-DR | 0.002 ± 0.013 | -0.0075 ± 0.012 | -0.01 ± 0.025 | -0.0645 ± 0.005 | -0.669 ± 0.0085 | -0.0175 ± 0.028 | -0.01 ± 0.0042 | -0.032 ± 0.018 | -0.0685 ± 0.018 | -0.006 ± 0.025 | -0.041 ± 0.014 | -0.642 ± 0.14 | 0.0015 ± 0.016 | -0.0065 ± 0.0064 | 0.0125 ± 0.005 |
| BF4T:CCL2/MCP-1 | 0.005 ± 0.0014 | -0.0095 ± 0.0035 | 0.014 ± 0.0042 | -0.162 ± 0.02 | -0.2635 ± 0.0021 | -0.073 ± 0.0099 | -0.0415 ± 0.018 | -0.072 ± 0.0085 | -0.107 ± 0.0042 | 0.038 ± 0.028 | -0.0205 ± 0.021 | -0.378 ± 0.021 | 0.0165 ± 0.005 | -0.012 ± 0.014 | 0.002 ± 0.021 |
| BF4T:CD90 | -0.026 ± 0.014 | -0.0175 ± 0.0092 | -0.0125 ± 0.0078 | -0.0485 ± 0.028 | -0.0995 ± 0.029 | -0.0195 ± 0.018 | -0.0055 ± 0.00071 | -0.0085 ± 0.0078 | -0.035 ± 0.0099 | 0.0005 ± 0.00071 | -0.019 | -0.028 ± 0.038 | -0.004 ± 0.0057 | -0.007 ± 0.0057 | -0.0065 ± 0.0021 |
| BF4T:CD106/VCAM-1 | -0.0055 ± 0.015 | -0.015 ± 0.017 | -0.021 ± 0.0071 | -0.062 ± 0.0057 | -0.148 ± 0.079 | -0.0685 ± 0.026 | -0.0295 ± 0.022 | -0.104 ± 0.0099 | -0.198 ± 0.013 | -0.0255 ± 0.029 | -0.04 ± 0.028 | -0.126 ± 0.088 | 0.008 ± 0.079 | 0.039 | -0.0215 ± 0.028 |
| BF4T:CXCL8/IL-8 | 0.023 ± 0.041 | 0.0165 ± 0.03 | 0.0325 ± 0.05 | 0.0575 ± 0.019 | 0.0005 ± 0.026 | -0.0315 ± 0.037 | -0.031 ± 0.052 | -0.051 ± 0.034 | -0.073 ± 0.02 | 0.002 ± 0.024 | 0.0225 ± 0.012 | -0.009 ± 0.018 | 0.032 ± 0.061 | 0.028 ± 0.037 | 0.0435 ± 0.033 |
| BF4T:IL-1alpha | 0.0165 ± 0.015 | 0.0095 ± 0.016 | 0.0355 ± 0.053 | 0.025 ± 0.027 | -0.0955 ± 0.026 | 0.0055 ± 0.036 | -0.006 ± 0.0042 | -0.008 ± 0.017 | -0.0675 ± 0.016 | -0.0015 ± 0.0092 | -0.0045 ± 0.005 | -0.0925 ± 0.005 | -0.025 ± 0.041 | -0.0245 ± 0.025 | -0.0125 ± 0.018 |
| BF4T:MMP-1 | 0.014 ± 0.02 | 0.009 ± 0.024 | 0.019 ± 0.048 | -0.0115 ± 0.013 | 0.0005 ± 0.026 | 0.031 ± 0.016 | 0 ± 0.0014 | -0.012 ± 0.0042 | -0.018 ± 0.0014 | 0.008 ± 0.016 | 0.025 ± 0.014 | -0.042 ± 0.0071 | -0.0015 ± 0.005 | 0.015 ± 0.011 | 0.015 ± 0.013 |
| BF4T:MMP-3 | 0.003 ± 0.0028 | 0.0005 ± 0.0035 | -0.008 ± 0.02 | 0.0035 ± 0.046 | 0.002 ± 0.028 | 0.056 ± 0.028 | -0.0185 ± 0.00071 | -0.011 ± 0.0042 | 0.0695 ± 0.061 | -0.0125 ± 0.0021 | 0.0225 ± 0.028 | -0.0595 ± 0.0035 | -0.001 ± 0.013 | -0.0215 ± 0.028 | 0.0055 ± 0.005 |
| BF4T:MMP-9 | 0.0005 ± 0.011 | -0.0055 ± 0.022 | -0.008 ± 0.0085 | -0.042 ± 0.047 | -0.154 ± 0.021 | -0.02 ± 0.021 | 0.0205 ± 0.021 | 0.011 ± 0.0085 | -0.003 ± 0.0085 | 0.0055 ± 0.0078 | 0.0065 ± 0.021 | -0.314 ± 0.083 | -0.0295 ± 0.096 | -0.033 ± 0.028 | -0.028 ± 0.062 |
| BF4T:PAI-I | -0.0035 ± 0.011 | -0.007 ± 0.0057 | -0.02 ± 0.0014 | -0.0455 ± 0.025 | -0.146 ± 0.034 | -0.0285 ± 0.00071 | 0.002 ± 0.0099 | 0.003 ± 0.0057 | -0.0115 ± 0.005 | -0.001 ± 0.0085 | -0.015 ± 0.0099 | -0.17 ± 0.0078 | -0.0175 ± 0.011 | -0.007 ± 0.0042 | -0.0075 ± 0.0035 |
| BF4T:SRB | -0.004 ± 0.0057 | 0.0005 ± 0.005 | 0.0025 ± 0.005 | -0.012 ± 0.0014 | -0.103 ± 0.0092 | -0.005 ± 0.0042 | -0.005 ± 0.0042 | -0.012 ± 0.0042 | -0.0345 ± 0.005 | -0.0015 ± 0.005 | -0.011 ± 0.0014 | -0.251 ± 0.0085 | 0.002 ± 0.0071 | -0.003 ± 0.0071 | -0.0035 ± 0.012 |
| BF4T:tPA | -0.012 ± 0.014 | -0.0235 ± 0.018 | -0.0065 ± 0.011 | -0.131 ± 0.019 | -0.133 | -0.071 ± 0.014 | 0.004 ± 0.0028 | -0.012 ± 0.0085 | -0.075 ± 0.016 | -0.0495 ± 0.029 | -0.047 ± 0.057 | -0.181 ± 0.085 | -0.0185 ± 0.016 | -0.036 ± 0.038 | -0.014 ± 0.047 |
